# In article PMC7037052, “Predicting the Blood-Brain Barrier Permeability of New Drug-Like Compounds via HPLC with Various Stationary Phases” (Molecules, 2020):
# Tests used:
# Format in all cases: physicochemical
# [1] = RP-HPLC retention on Purosphere RP-18e (ODS) column, buffer pH 7.4-acetonitrile; conditions: for log kw, ODS: extrapolated to buffer pH 7.4 as mobile phase, 25 °C; for s ODS: slope of Soczewiński-Wachtmeister equation, acetonitrile φ 0.3–0.6
# Method: (§1) Retention parameters reported as the log k values were calculated by the expression:(1) logk=log(tR−t0)/t0 where tR and t0 are the retention times of the solute and a non-retained compound (citric acid), respectively. They were used to calculate the log kw values, i.e., logarithms of retention parameter in the buffer as the mobile phase. For this purpose the Soczewiński-Wachtmeister’s equation was used:log k = log kw − sφ(2) where φ is the volume fraction of organic modifier in the mobile phase; k and kw are retention parameters corresponding to mixed effluent and buffer as the mobile phase, respectively. The slope s is characteristic of a given solute and chromatographic system. Strong linear relationships between log k and φ values were found for all the compounds in the range of effluent composition examined (R^2 > 0.9). The log kw values determined for the ODS (log kw, ODS), IAM (log kw, IAM) and Cholester (log kw, Cholester) columns were intercorrelated and the following linear relationships with a very good statistical quality were obtained:log kw, ODS = 0.691(± 0.094) + 0.982(± 0.044) log kw, IAM(3) SD = 0.257; R^2 = 0.8880; N = 65 log kw, ODS = 0.911(± 0.062) + 0.765(± 0.025) log kw, Cholester(4) SD = 0.192; R^2 = 0.9371; N = 65 log kw, IAM = 0.356(± 0.073) + 0.721(± 0.029) log kw, Cholester(5) SD = 0.224; R^2 = 0.9068; N = 65
# (§2) Shimadzu Vp (Shimadzu, Izabelin, Poland) liquid chromatographic system equipped with LC 10AT pump, SPD 10A UV-Vis detector, SCL 10A system controller, CTO-10 AS chromatographic oven and Rheodyne injector valve with a 20 µL loop was applied in HPLC measurements. Three stationary phases were employed: • Purosphere RP-18e (ODS), 125 × 4 mm i.d., 5 µm (Merck); • IAM.PC.DD2 100 × 4.6 mm i.d., 10 µm (Regis Chemicals Company, Morton Grove, IL, USA); • Cosmosil Cholester, 75 × 2 mm i.d., 2.5 µm (Genore, Warsaw, Poland).
# (§3) As mobile phases buffer-acetonitrile mixtures were used. The buffer was prepared from 0.01 mol L^−1 solutions of Na2HPO4 and citric acid and the pH 7.4 value was fixed before mixing with organic modifier. With the ODS column acetonitrile concentration in the effluent, expressed as a volume fraction (φ, v/v), was changed in the range 0.3–0.6, with the constant step of 0.1. The flow rate was 1 mL min^−1. With the IAM column acetonitrile concentration was changed in the range 0.2–0.5, also with the constant step of 0.1 and the flow rate was 1.3 mL min^−1. With the Cosmosil Cholester column acetonitrile concentration was changed in the range 0.4–0.6, with the constant step of 0.05 and the flow rate was 0.4 mL min^−1. Samples of test compounds were dissolved in acetonitrile—c.a. 0.005 mg mL^−1. […] They were detected under UV light at 210 and 254 nm. All measurements were carried out at 25 °C. The dead time values were measured from non-retained compound (citric acid) peaks. All reported log kw values are the average of at least three independent measurements. The extrapolated retention coefficients (logs kw) achieved by HPLC on ODS, IAM and Cholester stationary phases were used for modelling the log BB permeation of 65 drug-like compounds employed as a whole test set (Table 1).
# [2] = RP-HPLC retention on IAM.PC.DD2 (immobilized artificial membrane) column, buffer pH 7.4-acetonitrile; conditions: for log kw, IAM: extrapolated to buffer pH 7.4 as mobile phase, 25 °C; for s IAM: slope of Soczewiński-Wachtmeister equation, acetonitrile φ 0.2–0.5
# Method: as §1, §2, §3
# [3] = RP-HPLC retention on Cosmosil Cholester column, buffer pH 7.4-acetonitrile; conditions: for log kw, Cholester: extrapolated to buffer pH 7.4 as mobile phase, 25 °C; for s Cholester: slope of Soczewiński-Wachtmeister equation, acetonitrile φ 0.4–0.6
# Method: as §1, §2, §3
Structure (SMILES),"log kw, ODS [1]",s ODS [1],"log kw, IAM [2]",s IAM [2],"log kw, Cholester [3]",s Cholester [3]
COC(=O)Cc1nnc2n(c1=O)CCN2c1ccc(OC)cc1 [Compound 9],1.30,3.02,0.81,2.45,0.57,1.82
O=c1c(Cc2ccccc2Cl)nnc2n1CCN2c1ccc(Cl)cc1 [Compound 58],3.55,5.65,3.22,6.32,3.74,5.62
Cc1ccccc1N1CCn2c1nnc(Cc1ccccc1Cl)c2=O [Compound 56],3.01,4.95,2.02,4.31,2.34,4.05
O=c1c(Cc2ccccc2)nnc2n1CCN2c1ccc(Cl)cc1 [Compound 57],3.11,5.05,2.52,5.06,2.98,4.85
Cc1ccc(N2CCn3c2nnc(Cc2cccc(C)c2)c3=O)cc1 [Compound 47],3.09,5.24,2.59,5.14,3.09,5.06
O=c1c(-c2ccccc2)nnc2n1CCN2c1ccc(Cl)c(Cl)c1 [Compound 40],3.48,5.90,3.26,6.40,3.86,6.02
Cc1cccc(N2CCn3c2nnc(-c2ccccc2)c3=O)c1C [Compound 36],2.74,4.85,1.85,4.05,2.34,3.60
O=c1c(-c2ccco2)nnc2n1CCN2c1ccccc1 [Compound 18],2.12,4.06,1.29,3.23,1.43,3.12
CCOC(=O)Cc1nnc2n(c1=O)CCN2c1ccccc1 [Compound 12],1.75,3.61,1.21,3.11,1.11,2.55
O=c1c(-c2ccccc2)nnc2n1CCN2c1ccccc1Cl [Compound 37],2.43,4.60,1.73,3.84,1.96,3.65
Cc1ccc(N2CCn3c2nnc(Cc2ccc(Cl)cc2)c3=O)cc1 [Compound 50],3.22,5.55,2.81,5.62,3.39,5.34
COC(=O)Cc1nnc2n(c1=O)CCN2c1ccc(Cl)cc1 [Compound 11],2.36,4.44,1.82,4.39,1.82,3.55
O=c1c(Cc2cccc(Cl)c2)nnc2n1CCN2c1ccc(Cl)cc1 [Compound 59],3.61,5.85,3.15,6.01,3.67,5.75
CCOc1ccc(N2CCn3c2nnc(CC(=O)OC)c3=O)cc1 [Compound 10],1.95,3.91,1.42,3.39,1.36,2.81
CCOc1ccc(N2CCn3c2nnc(Cc2cccc(Cl)c2)c3=O)cc1 [Compound 54],3.35,5.55,2.73,5.61,3.31,5.22
COC(=O)Cc1nnc2n(c1=O)CCN2c1ccccc1 [Compound 7],1.28,3.09,0.81,2.38,0.58,1.92
Cc1ccccc1N1CCn2c1nnc(-c1ccccc1)c2=O [Compound 30],2.12,4.01,1.53,3.52,1.88,3.50
Cc1cccc(N2CCn3c2nnc(-c2ccccc2)c3=O)c1 [Compound 31],2.93,5.02,2.26,4.68,2.77,4.42
Cc1ccc(N2CCn3c2nnc(-c2ccccc2)c3=O)cc1 [Compound 32],2.93,5.06,2.22,4.81,2.86,4.65
O=c1c(Cc2ccc(Cl)cc2)nnc2n1CCN2c1ccc(Cl)cc1 [Compound 60],4.02,6.45,3.17,6.18,3.68,5.82
COc1ccccc1N1CCn2c1nnc(-c1ccccc1)c2=O [Compound 33],1.98,3.99,1.47,3.62,1.69,2.94
COc1ccc(N2CCn3c2nnc(-c2ccco2)c3=O)cc1 [Compound 23],1.91,3.82,1.19,3.13,1.53,3.05
